From patent publication US5488149A, “Substituted amic acid derivatives” (Banyu Pharmaceutical Co., Ltd., priority 1993, dated 1996)

What follows are compounds tested against T1, squalene synthase (Homo sapiens, UniProt P37268) (assay: Inhibitory activities against squalene synthase). Details: microsome fraction from human hepatoma (Hep G2) cells; 10 μM [3H]-farnesyl pyrophosphate; pH 7.4; 37° C., 20 minutes; read-out: 50% inhibitory concentration against squalene synthase activity (IC50).
T1 construct: A microsome fraction was prepared from human-hepatoma(Hep G2) cells; endogenous in cells; host or cells: Hep G2 (human hepatoma) cells, washed microsome fraction
T1 sequence (P37268 1-417): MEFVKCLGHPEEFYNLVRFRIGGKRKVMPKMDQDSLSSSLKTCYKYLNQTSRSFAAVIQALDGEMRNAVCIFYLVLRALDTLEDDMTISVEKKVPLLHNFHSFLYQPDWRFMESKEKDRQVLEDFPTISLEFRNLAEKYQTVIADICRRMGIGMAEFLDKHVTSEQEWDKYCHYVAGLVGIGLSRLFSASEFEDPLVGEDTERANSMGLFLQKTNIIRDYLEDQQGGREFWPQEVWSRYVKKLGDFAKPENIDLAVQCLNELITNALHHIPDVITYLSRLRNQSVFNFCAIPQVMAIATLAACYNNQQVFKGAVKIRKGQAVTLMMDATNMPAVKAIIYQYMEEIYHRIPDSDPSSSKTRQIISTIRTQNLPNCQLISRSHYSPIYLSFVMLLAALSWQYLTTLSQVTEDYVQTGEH
Type: biochemical
Method: Inhibitory activities against squalene synthase (1) Preparation of a microsome fraction A microsome fraction was prepared from human-hepatoma(Hep G2) cells by the method of Shechter et al disclosed in J. Biol. Chem., 267, 8628 (1992). Namely, Hep G2 cells were homogenized in the presence of a 0.3M sucrose-1 mM DTT-1 mM EDTA-10 mM Hepes buffer solution (pH 7.4) and various protease inhibitors, and subjected to centrifugal separation at 2000×g for 5 minutes and 10000×g for 15 minutes. The obtained supernatant was further subjected to centrifugal separation at 105000×g for 60 minutes, whereupon the precipitated residue was obtained. This precipitated residue was suspended in the above buffer solution containing various protease inhibitors, and the suspension was further subjected to centrifugal separation at 105000×g for 30 minutes to wash the precipitated residue. This washing operation was repeated three times. The finally obtained precipitated residue was taken as a microsome fraction, which was suspended in the above buffer solution containing no such various protease inhibitors, and the suspension was used for measuring the enzyme activities. (2) Method for measuring squalene synthase activities The enzymatic reaction of the squalene synthase was conducted in accordance with the method of Shechter et al disclosed in J. Biol. Chem., 267, 8628 (1992). […] Biochem., 203, 310 (1992). […] 50% inhibitory concentration against squalene synthase activity

IC50	SMILES
4.7 nM	C[C@@H](NC(=O)CC(CC(=O)O)C(=O)O)[C@H](Cc1ccc2ccccc2c1)c1ccc(-c2ccccc2)cc1 (relative stereo) [Example 32, N-{(1RS, 2RS)-2-(4-Biphenylyl)-1-methyl-3-(2-naphthyl)propyl}carbamoylmethylsuccinic acid]
5.4 nM	C[C@@H](NC(=O)CC(CC(=O)O)C(=O)O)[C@H](Cc1ccc(Cl)cc1)c1ccc(-c2ccccc2)c(F)c1 (relative stereo) [Example 35, N-{(1RS, 2RS)-3-(4-Chlorophenyl)-2-(2-fluoro-4-biphenylyl)-1-methylpropyl}carbamoylmethylsuccinic acid]
1.7 nM	C[C@@H](NC(=O)CC(CC(=O)O)C(=O)O)[C@@H](/C=C/c1ccc2ccccc2c1)Cc1ccc(Cl)c(Cl)c1 (relative stereo) [Example 102, N-((1RS, 2RS, 3E)-2-(3,4-dichlorobenzyl)-1-methyl-4-(2-naphthyl)-3-butenyl)carbamoylmethylsuccinic acid]
3.1 nM	CC(CC(=O)O)CC(=O)N[C@H](C)[C@@H](/C=C/c1ccc2ccccc2c1)Cc1ccc(Cl)c(Cl)c1 (relative stereo) [Example 112, 4-{(1RS, 2RS, 3E)-2-(3,4-dichlorobenzyl)-1-1-methyl-4-(2-naphthyl)-3-butenylcarbamoyl}-3-methylbutanoic acid]
3.2 nM	C[C@H](NC(=O)C[C@H](CC(=O)O)C(=O)O)[C@@H](Cc1ccc(Cl)cc1)c1ccc(-c2ccccc2)cc1 [Example 46 (2R-form), (2R)-2-[N-{(1S, 2S)-2-(4-biphenylyl)-3-(4-chlorophenyl)-1-methylpropyl} -carbamoylmethyl]succinic acid]
3 nM	C[C@@H]([C@@H](Cc1ccc(Cl)c(Cl)c1)c1ccc(-c2ccccc2)cc1)N(C)C(=O)C[C@@H](CC(=O)O)C(=O)O [Example 49, (2S)-2-[N-{(1S, 2S)-2-(4-Biphenylyl)-3-(3, 4dichlorophenyl) -1-methylpropyl}-N-methylcarbamoylmethyl]succinic acid]
1.4 nM	C[C@H](NC(=O)CC/C=C/C(=O)O)[C@@H](Cc1ccc(Cl)c(Cl)c1)c1ccc(-c2ccccc2)c(F)c1 [Example 70, (E)-5-[N-{(1S, 2S)-3-(3,4-Dichlorophenyl)-2-(2-fluoro-4-biphenylyl)-1-methylpropyl}carbamoyl]-2-pentenoic acid]
0.5 nM	C[C@H](NC(=O)C[C@@H](CC(=O)O)C(=O)O)[C@@H](Cc1ccc(Cl)c(Cl)c1)OC(=O)c1ccc2ccccc2c1 [Example 92, (2S)-2-[N-{(1S, 2R)-3-(3,4-dichlorophenyl)-1-methyl-2-(2-naphthoyloxy)propyl}carbamoylmethyl]succinic acid]
